Measurements as given in PMC12302426, “Dihydrokoumine, a dual-target analgesic with reduced side effects isolated from a traditional Chinese medicine” (Journal of Advanced Research, 2024).

Columns and labels:
[1] = target: T1, orphan receptor GPR35 (Homo sapiens, UniProt Q9HC97); experiment: DMR desensitization assay, CHO-K1-hGPR35, probe zaprinast; type: cell-based; conditions: 100 μM DK
T1 construct: expressed in transfected cells; host or cells: CHO-K1-hGPR35
Protocol: (§1) DMR assays were performed using an Epic® BT system (Corning, NY, USA). All used cell lines were directly seeded in Epic 384-well biosensor microplates with a seeding density of 25,000 cells per well. After being cultured for about 22 h, the cells formed a monolayer with a confluency of about 95 % in the cell culture medium. Then the cells were manually washed using assay buffer (1 × HBSS buffer, 10 mM HEPES, pH = 7.4) and maintained in 30 μL of the assay buffer for 1 h. All samples were dissolved in DMSO and diluted freshly with the assay buffer containing 0.1 % BSA.
(§2) The receptor selectivity was evaluated against a set of G protein-coupled receptors (GPCRs), including opioid receptor (Delta/Kappa/NOP), dopamine receptor (D1/D2), orphan receptor (GPR35), adrenergic receptor (α2A/β2), serotonin receptor (5HT2A), histamine receptor (H1) and cannabinoid receptor (CB1). Following a 1-hour pretreatment with DK, a 2-min baseline was established before introducing probes and monitoring DMR signals for another hour. The cells and probes were as follows: Delta, HEK293-Delta, SNC162; Kappa, HEK293-Kappa, ICI199441; NOP, HEK293-NOP, MCOPPB; D1, HEK293-D1, dopamine; D2, HEK293-D2, dopamine; GPR35, CHO-K1-hGPR35, zaprinast; 5HT2A, HEK293-5HT2A, 5-hydroxytryptamine; α2A, HEK293-α2A, L-Noradrenaline; β2, A431, isoprenaline; H1, A431, histamine; CB1, CHO-K1-CB1, CP 55940. […]

[2] = target: T2, MOR (Homo sapiens, UniProt P35372); experiment: Radioligand binding assay, [3H] DAMGO; conditions: [3H] DAMGO 0.5 nM
T2 construct: expressed in transfected cells; host or cells: HEK293 cell membranes
T2 sequence (P35372 whole entry): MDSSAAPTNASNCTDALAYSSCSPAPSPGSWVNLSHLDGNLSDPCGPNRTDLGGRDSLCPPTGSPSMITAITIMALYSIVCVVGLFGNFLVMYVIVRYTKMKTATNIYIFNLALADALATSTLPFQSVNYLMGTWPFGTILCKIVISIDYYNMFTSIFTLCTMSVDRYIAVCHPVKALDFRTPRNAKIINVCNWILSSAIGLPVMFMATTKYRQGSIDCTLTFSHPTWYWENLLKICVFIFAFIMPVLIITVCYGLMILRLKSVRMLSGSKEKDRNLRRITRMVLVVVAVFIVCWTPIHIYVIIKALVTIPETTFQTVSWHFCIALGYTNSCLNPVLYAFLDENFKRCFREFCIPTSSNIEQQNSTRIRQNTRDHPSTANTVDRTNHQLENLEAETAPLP
Protocol: (§3) Radioligand binding assays were conducted using MicroBeta2 (PerkinElmer, USA). Membrane protein preparations MOR and M3R were each prepared at a concentration of 2.5 µg/well. The radio ligands [^3H] DAMGO (specific for MOR) and [^3H]-NMS (specific for M3R) were prepared at concentrations of 0.5 nM and 0.2 nM, respectively. […] For each well, 1 µL of the serially diluted test compounds was transferred, followed by the addition of 100 µL of membrane stock solution and 100 µL of radioligand. The plates were sealed and shaken at 300 rpm at room temperature for one hour. Upon completion of the binding assay, the contents of each well were filtered through Unifilter-96 GF/C filter plates (PerkinElmer, USA). The filter plates were dried for one hour at 50°C and sealed. The trapped ^3H (tritium) on the filters was then quantified using the MicroBeta2. The percentage of inhibition or binding was subsequently calculated.

[3] = target: T3, adrenergic receptor β2 (Homo sapiens, UniProt P07550); experiment: DMR desensitization assay, A431, probe isoprenaline; type: cell-based; conditions: 100 μM DK
T3 construct: endogenous in cells; host or cells: A431
T3 sequence (P07550 whole entry): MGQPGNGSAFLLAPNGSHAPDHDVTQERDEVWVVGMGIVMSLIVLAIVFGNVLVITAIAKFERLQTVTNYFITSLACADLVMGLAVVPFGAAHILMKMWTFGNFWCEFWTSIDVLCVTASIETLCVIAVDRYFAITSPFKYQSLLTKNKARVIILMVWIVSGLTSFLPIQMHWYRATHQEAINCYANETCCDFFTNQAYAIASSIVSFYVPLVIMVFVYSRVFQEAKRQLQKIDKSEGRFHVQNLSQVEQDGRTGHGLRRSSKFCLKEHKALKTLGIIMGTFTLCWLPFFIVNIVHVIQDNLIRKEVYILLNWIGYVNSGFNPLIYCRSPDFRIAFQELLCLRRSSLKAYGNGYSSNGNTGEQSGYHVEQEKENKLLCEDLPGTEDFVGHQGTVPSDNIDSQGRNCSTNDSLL
Protocol: as §1, §2

[4] = test system: C57BL/6 male mice; experiment: Formalin paw test; type: in vivo
Protocol: The formalin test in mice was conducted following established procedures. Six-week-old C57BL/6 male mice were used in […] (n = 6). Mice were individually acclimated in a 4-liter glass beaker for 30 min prior to the test. Solvent mixture, […], morphine (5 mg/kg), or DK (20, 40 mg/kg) were injected intraperitoneally (5 mL/kg) 15 min prior to formalin injection. Formalin solution (5 %, 25 μL) was injected into the dorsal surface of the right hind paw using a 50 μL Hamilton syringe with a 30-gauge needle. […] Evaluation of MOR agonistic activity of dihydrokoumine, naloxone (2 mg/kg) was first injected intraperitoneally, immediately followed by the injection of morphine (5 mg/kg) or DK (20 mg/kg).

[5] = test system: HEK293T cells; experiment: Cytotoxicity assay (CCK-8), HEK293T; type: cell-based; conditions: 24 h
Protocol: (§4) HEK293T, CHO, and HUVEC cell lines were cultured overnight in 96-well plates before exposure to compounds for 24 h. Cell viability was evaluated using the Cell Counting Kit-8 (CCK-8, Beyotime Biotechnology, China), and absorbance at 450 nm was measured with a microplate reader. Cell survival rates were calculated relative to control conditions.

[6] = target: T4, Delta opioid receptor (Homo sapiens, UniProt P41143); experiment: DMR agonist and desensitization assay in HEK293-Delta cells; type: cell-based
T4 construct: expressed in transfected cells; host or cells: HEK293-Delta
T4 sequence (P41143 whole entry): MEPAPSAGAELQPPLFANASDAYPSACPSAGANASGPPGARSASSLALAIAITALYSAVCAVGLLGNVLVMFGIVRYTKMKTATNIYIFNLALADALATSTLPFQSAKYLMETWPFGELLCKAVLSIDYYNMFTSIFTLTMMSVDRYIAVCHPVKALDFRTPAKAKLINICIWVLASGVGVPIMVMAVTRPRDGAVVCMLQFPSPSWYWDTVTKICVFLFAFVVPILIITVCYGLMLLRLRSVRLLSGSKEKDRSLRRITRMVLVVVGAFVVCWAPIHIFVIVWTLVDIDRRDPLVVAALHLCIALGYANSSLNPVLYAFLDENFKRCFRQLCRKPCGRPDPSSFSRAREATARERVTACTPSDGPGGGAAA
Protocol: as §1
(§5) The DMR assays were conducted as follows. […] In the case of the DMR desensitization assay, cells were pretreated with analytes for one hour before introducing a specific agonist at the indicated concentration, and the agonist-induced DMR signals were monitored for one hour. Finally, for the DMR antagonist assay, cells underwent a 1-hour pretreatment with an antagonist before the addition of a specific agonist at the indicated concentration, and subsequent DMR signals were recorded over one hour.
(§6) The receptor selectivity was evaluated against a set of G protein-coupled receptors (GPCRs), including opioid receptor (Delta/Kappa/NOP), dopamine receptor (D1/D2), orphan receptor (GPR35), adrenergic receptor (α2A/β2), serotonin receptor (5HT2A), histamine receptor (H1) and cannabinoid receptor (CB1). Following a 1-hour pretreatment with DK, a 2-min baseline was established before introducing probes and monitoring DMR signals for another hour. The cells and probes were as follows: Delta, HEK293-Delta, SNC162; Kappa, HEK293-Kappa, ICI199441; NOP, HEK293-NOP, MCOPPB; D1, HEK293-D1, dopamine; D2, HEK293-D2, dopamine; GPR35, CHO-K1-hGPR35, zaprinast; 5HT2A, HEK293-5HT2A, 5-hydroxytryptamine; α2A, HEK293-α2A, L-Noradrenaline; β2, A431, isoprenaline; H1, A431, histamine; CB1, CHO-K1-CB1, CP 55940. The other detailed process was the same as above.

[7] = target: T5, Kappa opioid receptor (Homo sapiens, UniProt P41145); experiment: DMR agonist and desensitization assay in HEK293-Kappa cells; type: cell-based
T5 construct: expressed in transfected cells; host or cells: HEK293-Kappa
T5 sequence (P41145 whole entry): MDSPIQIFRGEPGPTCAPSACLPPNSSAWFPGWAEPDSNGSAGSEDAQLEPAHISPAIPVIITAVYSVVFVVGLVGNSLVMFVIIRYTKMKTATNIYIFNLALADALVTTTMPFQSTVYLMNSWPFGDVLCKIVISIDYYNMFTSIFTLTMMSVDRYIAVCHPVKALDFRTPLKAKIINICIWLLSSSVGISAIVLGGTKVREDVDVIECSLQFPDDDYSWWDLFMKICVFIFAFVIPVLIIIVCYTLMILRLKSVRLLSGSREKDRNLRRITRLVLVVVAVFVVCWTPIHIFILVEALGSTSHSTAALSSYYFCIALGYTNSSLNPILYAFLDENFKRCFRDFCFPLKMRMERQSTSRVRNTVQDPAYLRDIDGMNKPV
Protocol: as §1, §5, §6

[8] = target: T6, M3R (Homo sapiens, UniProt P20309); experiment: FLIPR Ca2+ antagonist assay in HEK293-M3 cells (carbachol-induced); type: cell-based
T6 construct: expressed in transfected cells; host or cells: HEK293 cell membranes
T6 sequence (P20309 whole entry): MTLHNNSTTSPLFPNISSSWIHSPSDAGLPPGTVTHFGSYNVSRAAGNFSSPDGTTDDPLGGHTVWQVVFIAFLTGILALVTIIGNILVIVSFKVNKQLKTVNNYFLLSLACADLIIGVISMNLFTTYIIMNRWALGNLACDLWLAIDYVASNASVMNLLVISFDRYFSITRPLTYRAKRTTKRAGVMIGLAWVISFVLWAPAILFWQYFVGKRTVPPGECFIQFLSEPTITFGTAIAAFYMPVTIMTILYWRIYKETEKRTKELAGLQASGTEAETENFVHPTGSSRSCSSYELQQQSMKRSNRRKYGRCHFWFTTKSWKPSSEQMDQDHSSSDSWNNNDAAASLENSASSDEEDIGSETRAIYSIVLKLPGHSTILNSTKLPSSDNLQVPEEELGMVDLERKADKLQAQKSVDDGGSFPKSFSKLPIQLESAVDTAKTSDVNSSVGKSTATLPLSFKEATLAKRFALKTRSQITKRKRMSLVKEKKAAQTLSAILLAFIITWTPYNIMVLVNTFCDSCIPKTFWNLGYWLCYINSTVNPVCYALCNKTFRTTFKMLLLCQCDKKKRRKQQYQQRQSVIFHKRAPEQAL
Protocol: FLIPR assay was carried out as reported earlier. Cell lines were seeded in 96-well plates with black walls (Greiner, USA) at 8.0 × 10^4 cells per well. After approximately 22 h of incubation, the cells were exposed to Calcium-6 dye (Molecular Devices, USA) in HBSS buffer supplemented with 20 mM HEPES (pH 7.4) at 37°C for one hour. Samples, redissolved in DMSO and housed in 96-well drug plates, underwent dilution with FLIPR buffer and subsequent automated introduction to the cells. […] In FLIPR antagonist experiments, cells were pre-incubated with the compound for 10 min prior to introducing a specified concentration of agonist. Results were presented as fluorescence (arbitrary units) plotted against time.

[9] = target: T6, M3R; experiment: Radioligand binding assay, [3H] NMS; conditions: [3H] NMS 0.2 nM
Protocol: as §3

[10] = test system: CHO cells; experiment: Cytotoxicity assay (CCK-8), CHO; type: cell-based; conditions: 24 h
Protocol: as §4

T1 sequence (Q9HC97 whole entry): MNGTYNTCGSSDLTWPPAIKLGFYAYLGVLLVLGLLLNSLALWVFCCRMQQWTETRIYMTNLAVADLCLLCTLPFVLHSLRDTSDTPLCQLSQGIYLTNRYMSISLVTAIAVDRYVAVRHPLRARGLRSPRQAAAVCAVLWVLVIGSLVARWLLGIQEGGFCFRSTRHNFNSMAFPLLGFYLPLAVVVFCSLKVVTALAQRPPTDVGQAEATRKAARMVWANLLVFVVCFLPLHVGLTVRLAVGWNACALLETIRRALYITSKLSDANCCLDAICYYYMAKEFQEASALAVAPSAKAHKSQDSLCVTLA

C=CC12CN(C)C3CC14c1ccccc1NC4C1CC2C3CO1 (stereo not drawn) [DK]
reduction of probe DMR response (desensitization) [1]: almost unable to reduce the response | Ki [2]: 0.0857 ± 0.0361 µM | efficacy (maximal inhibition of radioligand binding) [2]: 100% | reduction of probe DMR response (desensitization) [3]: almost unable to reduce the response | effect of naloxone on antinociception in formalin test ([4]; DK 20 mg/kg, naloxone 2 mg/kg): Naloxone antagonized the antinociception of DK | licking time in Phase I and Phase II ([4]; DK 20, 40 mg/kg i.p., formalin 5 %): remarkable decrease in the licking time in Phase I at both doses and in Phase II at high doses | cytotoxicity (cell viability) [5]: had a little effect on HEK293T cells but not in a concentration-dependent manner | DMR agonist response ([6]; HEK293-Delta cells): unable to trigger a concentration-dependent DMR response | probe-induced DMR response after DK pretreatment ([6]; HEK293-Delta, 2.5 μM SNC162, pretreatment one hour): had little effect on the DMR response produced by the respective probes | antagonist effect at high concentration (decrease of probe DMR response) ([6]; HEK293-Delta, SNC162, high-concentration of DK): very weak antagonist effects | DMR agonist response ([7]; HEK293-Kappa cells): unable to trigger a concentration-dependent DMR response | probe-induced DMR response after DK pretreatment ([7]; HEK293-Kappa, 25 nM ICI199441, pretreatment one hour): had little effect on the DMR response produced by the respective probes | antagonist effect at high concentration (decrease of probe DMR response) ([7]; HEK293-Kappa, ICI199441, high-concentration of DK): very weak antagonist effects | IC50 ([8]; FLIPR, 5 nM carbachol (Fig. 2D), read-out: IC50 for inhibition of carbachol-induced Ca2+ response): 11.6 ± 4.31 µM | concentration-dependent inhibition of carbachol-induced Ca2+ response at M3R compared with purified DK ([8]; semisynthesized material): its activity was close to that of purified DK | Ki [9]: 55.2 ± 11 µM | efficacy (maximal inhibition of radioligand binding) [9]: 74.6% | cytotoxicity (cell viability) [10]: noncytotoxic
